Laboratory results taken from ChEMBL document CHEMBL1201862, “PubChem BioAssay data set” (2004).
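Grown in 96-well plates, cells were treated for 48 hours with each compound at five concentrations. Insufficient inhibition: endpoint recorded as highest concentration tested. GI50 is the concentration that inhibits growth by half.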 The source made the active and inactive calls. No stated cut-off is given here; in the data, active = GI50 up to about 1.1 µM and inactive = higher.

Key:
Assay in all cases: inhibition of tumour cell growth, NCI panel, 48 h
786-0 = system: 786-0
A549 = system: A549
ACHN = system: ACHN
BT-549 = system: BT-549
CAKI-1 = system: CAKI-1
CCRF-CEM = system: CCRF-CEM
COLO 205 = system: COLO 205
DU-145 = system: DU-145
EKVX = system: EKVX
HCC 2998 = system: HCC 2998
HCT-116 = system: HCT-116
HCT-15 = system: HCT-15
HL-60 = system: HL-60
HOP-62 = system: HOP-62
HT-29 = system: HT-29
Hs-578T = system: Hs-578T
IGROV-1 = system: IGROV-1
K562 = system: K562
KM12 = system: KM12
LOX IMVI = system: LOX IMVI
M14 = system: M14
MCF7 = system: MCF7
MDA-MB-231 = system: MDA-MB-231
MDA-MB-435 = system: MDA-MB-435
MDA-N = system: MDA-N
MOLT-4 = system: MOLT-4
Malme-3M = system: Malme-3M
NCI-H226 = system: NCI-H226
NCI-H23 = system: NCI-H23
NCI-H460 = system: NCI-H460
NCI/ADR-RES = system: NCI/ADR-RES
OVCAR-3 = system: OVCAR-3
OVCAR-4 = system: OVCAR-4
OVCAR-5 = system: OVCAR-5
OVCAR-8 = system: OVCAR-8
PC-3 = system: PC-3
RPMI-8226 = system: RPMI-8226
RXF 393 = system: RXF 393
SF-268 = system: SF-268
SF-295 = system: SF-295
SK-MEL-28 = system: SK-MEL-28
SK-MEL-2 = system: SK-MEL-2
SK-MEL-5 = system: SK-MEL-5
SK-OV-3 = system: SK-OV-3
SN12C = system: SN12C
SNB-19 = system: SNB-19
SNB-75 = system: SNB-75
SR = system: SR
SW-620 = system: SW-620
T47D = system: T47D
TK-10 = system: TK-10
U-251 = system: U-251
UACC-257 = system: UACC-257
UACC-62 = system: UACC-62
UO-31 = system: UO-31
NCI-H522 = system: NCI-H522

`Oc1ccc(-c2nc(-c3ccc4ccccc4n3)c(-c3ccc(F)cc3)[nH]2)cc1` was tested, and the GI50 (786-0) was 15.2 µM (inactive), the GI50 (A549) was 11.6 µM (inactive) and the GI50 (ACHN) was 12.3 µM (inactive). The GI50 (BT-549) was 17.7 µM (inactive), the GI50 (CAKI-1) was 13.6 µM (inactive) and the GI50 (CCRF-CEM) was 15.1 µM (inactive). The GI50 (COLO 205) was 14.6 µM (inactive), the GI50 (DU-145) was 15.5 µM (inactive) and the GI50 (EKVX) was 17.8 µM (inactive). For the same compound, the GI50 (HCC 2998) was 3.94 µM (inactive), the GI50 (HCT-116) was 12.9 µM (inactive) and the GI50 (HCT-15) was 10.7 µM. The GI50 (HL-60) was 5.94 µM (inactive), the GI50 (HOP-62) was 18 µM (inactive) and the GI50 (HT-29) was 7.55 µM (inactive). The GI50 (Hs-578T) was 11 µM (inactive), the GI50 (IGROV-1) was 13 µM (inactive) and the GI50 (K562) was 14.5 µM (inactive). For the same compound, the GI50 (KM12) was 5.26 µM (inactive), the GI50 (LOX IMVI) was 10.6 µM (inactive) and the GI50 (M14) was 11 µM (inactive). For the same compound, the GI50 (MCF7) was 4.61 µM (inactive), the GI50 (MDA-MB-231) was 18.5 µM (inactive) and the GI50 (MDA-MB-435) was 12.2 µM (inactive). The GI50 (MDA-N) was 11.9 µM (inactive), the GI50 (MOLT-4) was 1.87 µM (inactive) and the GI50 (Malme-3M) was 13.7 µM (inactive). The GI50 (NCI-H226) was 14.2 µM (inactive), the GI50 (NCI-H23) was 12.5 µM (inactive) and the GI50 (NCI-H460) was 5.45 µM (inactive). For the same compound, the GI50 (NCI/ADR-RES) was 4.74 µM (inactive), the GI50 (OVCAR-3) was 6.19 µM (inactive) and the GI50 (OVCAR-4) was 11.2 µM (inactive). The GI50 (OVCAR-5) was 15.9 µM (inactive), the GI50 (OVCAR-8) was 12.5 µM (inactive) and the GI50 (PC-3) was 9.08 µM (inactive). The GI50 (RPMI-8226) was 5.62 µM (inactive), the GI50 (RXF 393) was 15.2 µM (inactive) and the GI50 (SF-268) was 13 µM (inactive). For the same compound, the GI50 (SF-295) was 10.4 µM (inactive), the GI50 (SK-MEL-28) was 17.4 µM (inactive) and the GI50 (SK-MEL-2) was 14.5 µM (inactive). For the same compound, the GI50 (SK-MEL-5) was 2.12 µM (inactive), the GI50 (SK-OV-3) was 15.3 µM (inactive) and the GI50 (SN12C) was 15.3 µM (inactive). For the same compound, the GI50 (SNB-19) was 17.3 µM (inactive), the GI50 (SNB-75) was 21.6 µM (inactive) and the GI50 (SR) was 6.25 µM (inactive). The GI50 (SW-620) was 14.3 µM (inactive), the GI50 (T47D) was 7.11 µM (inactive) and the GI50 (TK-10) was 13.2 µM (inactive). For the same compound, the GI50 (U-251) was 10.6 µM (inactive), the GI50 (UACC-257) was 13.5 µM (inactive) and the GI50 (UACC-62) was 11.5 µM (inactive). For the same compound, the GI50 (UO-31) was 11.6 µM (inactive).

For `CN(C)CCc1ccnc2nc(-c3ccc4ccccc4c3)cn12`, the GI50 (786-0) was 25 µM (inactive), the GI50 (A549) was > 100 µM (inactive) and the GI50 (ACHN) was 29.4 µM (inactive). For the same compound, the GI50 (BT-549) was 23.4 µM (inactive), the GI50 (CAKI-1) was 35.2 µM (inactive) and the GI50 (CCRF-CEM) was 33.3 µM (inactive). The GI50 (COLO 205) was 33.3 µM (inactive), the GI50 (DU-145) was 45.2 µM (inactive) and the GI50 (EKVX) was 38 µM (inactive). The GI50 (HCC 2998) was 18.5 µM (inactive), the GI50 (HCT-116) was 31.7 µM (inactive) and the GI50 (HCT-15) was 34.6 µM. For the same compound, the GI50 (HL-60) was 36.9 µM (inactive), the GI50 (HOP-62) was 56.9 µM (inactive) and the GI50 (HT-29) was 17.8 µM (inactive). For the same compound, the GI50 (Hs-578T) was 17.8 µM (inactive), the GI50 (IGROV-1) was 23.9 µM (inactive) and the GI50 (K562) was 79.8 µM (inactive). For the same compound, the GI50 (KM12) was 18.1 µM (inactive), the GI50 (LOX IMVI) was 25 µM (inactive) and the GI50 (M14) was 47.8 µM (inactive). For the same compound, the GI50 (MCF7) was 34.7 µM (inactive), the GI50 (MDA-MB-231) was 28.8 µM (inactive) and the GI50 (MDA-MB-435) was 33.3 µM (inactive). The GI50 (MDA-N) was 29.6 µM (inactive), the GI50 (MOLT-4) was 35.2 µM (inactive) and the GI50 (Malme-3M) was 96.4 µM (inactive). For the same compound, the GI50 (NCI-H226) was 27.8 µM (inactive), the GI50 (NCI-H23) was 20.4 µM (inactive) and the GI50 (NCI-H460) was 14.7 µM (inactive). For the same compound, the GI50 (NCI-H522) was 12 µM (inactive), the GI50 (NCI/ADR-RES) was 26.2 µM (inactive) and the GI50 (OVCAR-3) was 25.8 µM (inactive). The GI50 (OVCAR-4) was 27.5 µM (inactive), the GI50 (OVCAR-5) was 47.1 µM (inactive) and the GI50 (OVCAR-8) was 26.9 µM (inactive). For the same compound, the GI50 (PC-3) was 33.7 µM (inactive), the GI50 (RPMI-8226) was > 100 µM (inactive) and the GI50 (RXF 393) was 30.9 µM (inactive). For the same compound, the GI50 (SF-268) was 23 µM (inactive), the GI50 (SF-295) was 88.7 µM (inactive) and the GI50 (SK-MEL-28) was 45.6 µM (inactive). For the same compound, the GI50 (SK-MEL-2) was > 100 µM (inactive), the GI50 (SK-MEL-5) was 34.7 µM (inactive) and the GI50 (SK-OV-3) was 38.5 µM (inactive). The GI50 (SN12C) was 26.8 µM (inactive), the GI50 (SNB-19) was 69.2 µM (inactive) and the GI50 (SR) was 57.5 µM (inactive). The GI50 (SW-620) was 21.4 µM (inactive), the GI50 (T47D) was 34.9 µM (inactive) and the GI50 (TK-10) was 15.7 µM (inactive). For the same compound, the GI50 (U-251) was 38.2 µM (inactive), the GI50 (UACC-257) was 36.3 µM (inactive) and the GI50 (UACC-62) was 44.5 µM (inactive). The GI50 (UO-31) was 52.6 µM (inactive).
